Measurements from patent US20150045409A1, “AMIDE COMPOUND AND USE THEREOF FOR PEST CONTROL” (SUMITOMO CHEMICAL COMPANY, LIMITED, priority 2012, published 2015).

Assays:
Assay type in all cases: in vivo
[1] = test system: adult houseflies (Musca domestica); test: Filter paper/sucrose bait knockdown test on adult houseflies (Test Example 7); details: 0.7 ml on filter paper with sucrose bait, after 2 hours, read-out: knockdown rate
Protocol: (§1) Each of the formulations of Compounds (2), (4) to (6), (8), (9), (18), (21) to (23), (27), (29), (32) to (36), (38), (41), (42) and (53) of the present invention obtained in Formulation Example 15 was diluted with water, so as to have a concentration of active ingredient of 500 ppm, to prepare a test drug solution.
(§2) On the bottom of a polyethylene cup with a diameter of 5.5 cm, a filter paper of the same size was laid down, and 0.7 ml of the test drug solution was dropped onto the filter paper, then 30 mg of sucrose was uniformly put as bait. Ten adult houseflies (Musca domestica) were released in the polyethylene cup which was then capped. After 2 hours, the number of knockdown insects was counted to obtain a knockdown rate. The knockdown rate was calculated by the following equation.
(§3) Knockdown Rate(%)=(Number of Knockdown Insects/Number of Tested Insects)×100

[2] = test system: adult houseflies (Musca domestica); test: Filter paper/sucrose bait mortality test on adult houseflies (Test Example 8); details: 0.7 ml on filter paper with sucrose bait, after 24 hours
Protocol: as §1, with “(2)” for “(2), (4)”, “(12), (15) to” for “(9),”, “(18),” for “(18), (21) to (23),”, “(33), (37)” for “(32)”, “(39),” for “(36), (38),”, “(45)” for “(53)”
as §2, with “capped.” for “capped. After 2 hours, the number of knockdown insects was counted to obtain a knockdown rate. The knockdown rate was calculated by the following equation.”

[3] = test system: adult houseflies; test: Spray knockdown test on adult houseflies (Test Examples 3, 4); details: Musca domestica, 10 min, 0.5 ml sprayed, counted after 10 minutes, read-out: knockdown rate; for pest or weed control at 0.5 %: active ingredient 0.5% w/v oil solution; for pest or weed control at 2 %: active ingredient 2.0% w/v oil solution
Protocol: (§4) The formulations of Compounds (7), (46) and (48) of the present invention obtained in Formulation Example 7 were diluted with a mixture solution with a ratio of isopropyl alcohol/deodorized kerosene of 1/9, so as to have a concentration of active ingredient of 2.0% w/v, to prepare a test drug solution.
Ten adult houseflies (5 males and 5 females) were released in a polyethylene cup (a bottom diameter of 10.6 cm) which was then capped with 16-mesh nylon gauze. The polyethylene cup was placed on the bottom of a test chamber (bottom: 46 cm×46 cm, height: 70 cm). From a height of 30 cm above the upper surface of the polyethylene cup, 0.5 ml of the test drug solution was sprayed using a spray gun (a spraying pressure of 0.9 kg/cm^2). Immediately after spraying, the cup was taken out from the test container, and after 10 minutes, the number of knockdown insects was counted to obtain a knockdown rate. The knockdown rate was calculated by the following equation.
as §3
as §4, with “(4), (6), (8), (17) to (19), (28), (29), (33), (40) to (42)” for “(7), (46)”, “(51) to (53)” for “(48)”, “0.5%” for “2.0%”, “solution. The test was performed in the same manner as in Test Example 3.” for “solution.”

[4] = test system: German cockroaches (Blattella germanica); test: Spray knockdown test on German cockroaches (Test Examples 1, 2); details: 5 min, 1.5 ml sprayed, counted after 5 minutes, read-out: knockdown rate; for pest or weed control at 0.5 %: active ingredient 0.5% w/v oil solution; for pest or weed control at 2 %: active ingredient 2.0% w/v oil solution
Protocol: The formulations of Compounds (7), (46), (48) and (54) of the present invention obtained in Formulation Example 7 were diluted with a mixture solution of isopropyl alcohol/deodorized kerosene of 1/9, so as to have a concentration of active ingredient of 2.0% w/v, to prepare a test drug solution.
Ten German cockroaches (Blattella germanica) (5 males and 5 females) were released in a test container (8.75 cm in diameter, 7.5 cm in height, and the bottom made of 16 mesh metallic wire) with the inner wall on which butter was applied, and the container was placed on the bottom of a test chamber (bottom: 46 cm×46 cm, height: 70 cm). From a height of 60 cm above the upper surface of the container, 1.5 ml of the test drug solution was sprayed using a spray gun (a spraying pressure of 0.42 kg/cm^2). Thirty seconds after spraying, the container was taken out from the test chamber, and after 5 minutes, the number of knockdown insects was counted to obtain a knockdown rate. The knockdown rate was calculated by the following equation.
as §3
as §4, with “(1), (2), (4), (6) to (8), (10) to (14), (17) to (20), (23) to (25), (28), (31) to (33), (39) to (42), (44)” for “(7), (46)”, “(50) to (53)” for “(48)”, “0.5%” for “2.0%”
The test was performed in the same manner as in Test Example 1.

[5] = test system: last instar larvae of common house mosquitoes (Culex pipiens pallens); test: Larvicidal test on common house mosquito larvae in water (Test Examples 9, 10); details: active ingredient 3.5 ppm in water
Protocol: Each of the formulations of Compounds (26) and (45) of the present invention obtained in Formulation Example 15 was diluted with water, so as to have a concentration of active ingredient of 500 ppm, to prepare a test drug solution.
0.7 ml of the test drug solution was added to 100 ml of ion-exchanged water (a concentration of active ingredient of 3.5 ppm).
Each of the formulations of Compounds (5), (6), (24), (27), (29), (30), (33), (38) and (47) of the present invention obtained in Formulation Example 15 was diluted with water, so as to have a concentration of active ingredient of 500 ppm, to prepare a test drug solution.

SMILES: CC1CC1C1CC1/C=C/C(=O)NCC1CCOCC1 (stereo not drawn) [Compound (53), (E)-N-(tetrahydropyran-4-ylmethyl)-3-(trans-2′-(trans-2″-methylcyclopropyl)cyclopropyl)-2-propenamide]
- pest or weed control at 500 ppm [1]: 100%

SMILES: CCCCCC/C(C)=C(\F)C(=O)NCC1CCOC1 (stereo not drawn) [Compound (8), (Z)—N-(tetrahydrofuran-3-ylmethyl)-2-fluoro-3-methyl-2-nonenamide]
- mortality at 500 ppm [2]: ≥ 90%
- pest or weed control at 500 ppm [1]: 100%
- pest or weed control at 0.5 % [3]: ≥ 80%

SMILES: CCCCCC/C(C)=C/C(=O)NCC1CCOCC1 [Compound (28), (E)-N-(tetrahydropyran-4-ylmethyl)-3-methyl-2-nonenamide]
- pest or weed control at 0.5 % [4]: ≥ 70%
- pest or weed control at 0.5 % [3]: ≥ 80%

SMILES: CCCC1CC1/C=C/C(=O)NCC1CCOC1 (stereo not drawn) [Compound (18), (E)-N-(tetrahydrofuran-3-ylmethyl)-3-(trans-2′-propylcyclopropyl)-2-propenamide]
- pest or weed control at 500 ppm [1]: 100%

SMILES: CCCCCC/C(C)=C(/F)C(=O)NCC1CCOC1 (stereo not drawn) [Compound (9), (E)-N-(tetrahydrofuran-3-ylmethyl)-2-fluoro-3-methyl-2-nonenamide]
- pest or weed control at 500 ppm [1]: 100%

SMILES: CCCCCC/C(C)=C(\F)C(=O)NCC1CCOCC1 [Compound (29), (Z)—N-(tetrahydropyran-4-ylmethyl)-2-fluoro-3-methyl-2-nonenamide]
- mortality at 3.5 ppm ([5]; 192 h, after 8 days): ≥ 95%
- mortality at 500 ppm [2]: ≥ 90%
- pest or weed control at 500 ppm [1]: 100%
- pest or weed control at 0.5 % [3]: ≥ 80%

SMILES: CCCCCC/C=C/C(=O)NCC1CCOC1 (stereo not drawn) [Compound (2), (E)-N-(tetrahydrofuran-3-ylmethyl)-2-nonenamide]
- pest or weed control at 0.5 % [4]: ≥ 70%
- pest or weed control at 500 ppm [1]: 100%

SMILES: CCCCCC/C(C)=C(/F)C(=O)NCC1CCOCC1 [Compound (30), (E)-N-(tetrahydropyran-4-ylmethyl)-2-fluoro-3-methyl-2-nonenamide]
- mortality at 3.5 ppm ([5]; 192 h, after 8 days): ≥ 95%

SMILES: CCCCCC/C=C(\F)C(=O)NCC1CCOC1 (stereo not drawn) [Compound (7), (Z)—N-(tetrahydrofuran-3-ylmethyl)-2-fluoro-2-nonenamide]
- pest or weed control at 2 % [4]: ≥ 80%
- pest or weed control at 2 % [3]: ≥ 80%

SMILES: O=C(/C=C/CCCCCl)NCC1CCOCC1 [Compound (54), (E)-N-(tetrahydropyran-4-ylmethyl)-7-chloro-2-heptenamide]
- pest or weed control at 2 % [4]: ≥ 80%

SMILES: CCCCCC/C(C)=C/C(=O)NCC1CCOC1 (stereo not drawn) [Compound (6), (E)-N-(tetrahydrofuran-3-ylmethyl)-3-methyl-2-nonenamide]
- mortality at 3.5 ppm ([5]; 192 h, after 8 days): ≥ 95%
- pest or weed control at 0.5 % [3]: ≥ 80%

SMILES: CCCCCC/C=C/C(=O)NCC1(CC)COCOC1 [Compound (48), (E)-N-(5-ethyl-1,3-dioxan-5-ylmethyl)-2-nonenamide]
- pest or weed control at 2 % [4]: ≥ 80%
- pest or weed control at 2 % [3]: ≥ 80%

SMILES: CCC1CC1CC/C=C/C(=O)NCC1CCOCC1 (stereo not drawn) [Compound (44), (E)-N-(tetrahydropyran-4-ylmethyl)-5-(trans-2′-ethylcyclopropyl)-2-pentenamide]
- pest or weed control at 0.5 % [4]: ≥ 70%

SMILES: CCCCCCC/C=C/C(=O)NCC1CCOCC1 [Compound (26), (E)-N-(tetrahydropyran-4-ylmethyl)-2-decenamide]
- mortality at 3.5 ppm ([5]; after a day): ≥ 95%

SMILES: C=CCCCCC/C=C/C(=O)NCC1CCOCC1 [Compound (33), (E)-N-(tetrahydropyran-4-ylmethyl)-deca-2,9-dienamide]
- mortality at 3.5 ppm ([5]; 192 h, after 8 days): ≥ 95%
- mortality at 500 ppm [2]: ≥ 90%
- pest or weed control at 0.5 % [3]: ≥ 80%

SMILES: CCCCCCC/C=C/C(=O)NCC1CCOC1 (stereo not drawn) [Compound (4), (E)-N-(tetrahydrofuran-3-ylmethyl)-2-decenamide]
- pest or weed control at 0.5 % [4]: ≥ 70%
- pest or weed control at 0.5 % [3]: ≥ 80%

SMILES: CCCCCCCC/C=C/C(=O)NCC1CCOCC1 [Compound (27), (E)-N-(tetrahydropyran-4-ylmethyl)-2-undecenamide]
- mortality at 3.5 ppm ([5]; 192 h, after 8 days): ≥ 95%
- mortality at 500 ppm [2]: ≥ 90%
- pest or weed control at 500 ppm [1]: 100%

SMILES: C#CCCCC/C=C/C(=O)NCC1CCOCC1 [Compound (38), (E)-N-(tetrahydropyran-4-ylmethyl)-non-2-en-8-ynamide]
- mortality at 3.5 ppm ([5]; 192 h, after 8 days): ≥ 95%
- pest or weed control at 500 ppm [1]: 100%

SMILES: CCCCC/C=C/C(=O)NCC1CCOC1 (stereo not drawn) [Compound (1), (E)-N-(tetrahydrofuran-3-ylmethyl)-2-octenamide]
- pest or weed control at 0.5 % [4]: ≥ 70%

SMILES: CCCCCC/C=C/C(=O)NCC1CCCCO1 (stereo not drawn) [Compound (46), (E)-N-(tetrahydropyran-2-ylmethyl)-2-nonenamide]
- pest or weed control at 2 % [4]: ≥ 80%
- pest or weed control at 2 % [3]: ≥ 80%

SMILES: CCCC1CC1/C=C/C(=O)NCC1CCOCC1 (stereo not drawn) [Compound (41), (E)-N-(tetrahydropyran-4-ylmethyl)-3-(trans-2′-propylcyclopropyl)-2-propenamide]
- mortality at 500 ppm [2]: ≥ 90%
- pest or weed control at 500 ppm [1]: 100%

SMILES: CCCCC/C=C/C(=O)NCC1CCOCC1 [Compound (24), (E)-N-(tetrahydropyran-4-ylmethyl)-2-octenamide]
- mortality at 3.5 ppm ([5]; 192 h, after 8 days): ≥ 95%

SMILES: CCCCC1CC1/C=C/C(=O)NCC1CCOCC1 (stereo not drawn) [Compound (42), (E)-N-(tetrahydropyran-4-ylmethyl)-3-(trans-2′-butylcyclopropyl)-2-propenamide]
- mortality at 500 ppm [2]: ≥ 90%
- pest or weed control at 500 ppm [1]: 100%

SMILES: CCCCCC/C=C/C(=O)NCC1COCCO1 (stereo not drawn) [Compound (47), (E)-N-(1,4-dioxan-2-ylmethyl)-2-nonenamide]
- mortality at 3.5 ppm ([5]; 192 h, after 8 days): ≥ 95%

SMILES: C=CCCCCC/C=C/C(=O)NCC1CCOC1 (stereo not drawn) [Compound (12), (E)-N-(tetrahydrofuran-3-ylmethyl)-deca-2,9-dienamide]
- mortality at 500 ppm [2]: ≥ 90%

SMILES: CCCCCCCC/C=C/C(=O)NCC1CCOC1 (stereo not drawn) [Compound (5), (E)-N-(tetrahydrofuran-3-ylmethyl)-2-undecenamide]
- mortality at 3.5 ppm ([5]; 192 h, after 8 days): ≥ 95%
